From patent publication US20180104174A1, “Cosmetic Use of a Diospyros Mespiliformis Extract Alone or in Combination with Other Active Agents Such as an Anti-Pollutant” (Laboratoires Clarins, priority 2015, published 2018)

Experiments:
Type in all cases: cell-based
[1] = test system: cell reactive oxygen species (ROSs) in normal human keratinocytes; experiment: Mitoread AntiOx cROS: cell ROS production after H2O2 stress
Text: The objective of this study is the characterization of the antioxidant property of a Sanicula europea extract by evaluating the parameters of the redox state after induction of an oxidative stress by hydrogen peroxide (H2O2) in primary cultures of normal human keratinocytes. The Mitosafe® technology makes it possible to explore the antioxidant effects of active agents at the mitochondrial level. This technology consists of the integrated study of mitochondrial functions in living cells by multiplexed measurement of parameters such as cell viability, production of cell and mitochondrial oxygen free radicals, evaluation of antioxidant defenses. These tests in 96-well plates are carried out on primary cultures of human epidermal cells. The Mitoread AntiOx cROS methodology consists of the quantification of the antioxidant activity of the ingredients toward cell reactive oxygen species (ROSs) using a fluorescent label. […] After washing, the cells were co-incubated with the antioxidant reference compound, […] Trolox, or the extracts, at concentrations determined to be non-cytotoxic, in the presence of the pro-oxidizing reference compound, 100 μM H2O2. The cell ROS production was immediately recorded for 60 minutes. The fluorescence is recorded every five minutes using a microplate reader (Varioskan-Thermo). […]

[2] = test system: mitochondrial reactive oxygen species (ROSs) in normal human keratinocytes; experiment: Mitoread AntiOx mtROS: mitochondrial ROS production after H2O2 stress
Text: The objective of this study is the characterization of the antioxidant property of a Sanicula europea extract by evaluating the parameters of the redox state after induction of an oxidative stress by hydrogen peroxide (H2O2) in primary cultures of normal human keratinocytes. The Mitosafe® technology makes it possible to explore the antioxidant effects of active agents at the mitochondrial level. This technology consists of the integrated study of mitochondrial functions in living cells by multiplexed measurement of parameters such as cell viability, production of cell and mitochondrial oxygen free radicals, evaluation of antioxidant defenses. These tests in 96-well plates are carried out on primary cultures of human epidermal cells. The Mitoread AntiOx mtROS methodology consists of the quantification of the antioxidant activity of the ingredients toward mitochondrial reactive oxygen species (ROSs) using a fluorescent label. The cells were pre-incubated at 37° C. for 60 minutes with the reference antioxidant, resveratrol 1 μM, or the active ingredients at the predetermined concentrations. Next, they were incubated with the fluorescent probe at 37° C. for 30 minutes, as a replacement for the antioxidant compounds. […] The mitochrondrial ROS production was immediately recorded for 60 minutes. The fluorescence is recorded every five minutes using a microplate reader (Varioskan-Thermo). […]

[3] = test system: total glutathione (GSH+GSSG) in normal human keratinocytes; experiment: Mitoread RedOx GSHtot: total glutathione level after H2O2 stress
Text: (§1) The objective of this study is the characterization of the antioxidant property of a Sanicula europea extract by evaluating the parameters of the redox state after induction of an oxidative stress by hydrogen peroxide (H2O2) in primary cultures of normal human keratinocytes. The Mitosafe® technology makes it possible to explore the antioxidant effects of active agents at the mitochondrial level. This technology consists of the integrated study of mitochondrial functions in living cells by multiplexed measurement of parameters such as cell viability, production of cell and mitochondrial oxygen free radicals, evaluation of antioxidant defenses. These tests in 96-well plates are carried out on primary cultures of human epidermal cells. The Mitoread RedOx GSHtot methodology consists of the quantification of the total glutathione level (GSH+GSSG). The cells were pre-incubated at 37° C. for 60 minutes with the reference antioxidant, resveratrol 1 μM, or the extract at the predetermined concentrations. The cells were treated with the reference pro-oxidizing compound, hydrogen peroxide H2O2 at 100 μM, for 60 minutes. Immediately after, the cell extracts were prepared and stored at −80° C. The total glutathione level was measured by means of a fluorometric and enzymatic method using a microplate reader (Varioskan-Thermo). All the extracts were tested in triplicate.

[4] = test system: mitochondrial superoxide dismutase (SOD) in normal human keratinocytes; experiment: Mitoread RedOx c/mtSOD: mitochondrial SOD activity after H2O2 stress
Text: as §1, with “Mitoread RedOx c/mtSOD methodology consists” for “Mitoread RedOx GSHtot methodology consists”, “of the cell and mitochondrial SOD activities. The cells” for “of the total glutathione level (GSH+GSSG). The cells”, “antioxidant, resveratrol at 1 μM,” for “antioxidant, resveratrol 1 μM,”, “or the active ingredients at the” for “or the extract at the”, “at 100 μM for 60” for “at 100 μM, for 60”, “C. The enzymatic activities were measured by” for “C. The total glutathione level was measured by”

[5] = test system: cell superoxide dismutase (SOD) in normal human keratinocytes; experiment: Mitoread RedOx c/mtSOD: cell SOD activity after H2O2 stress
Text: as §1, with “Mitoread RedOx c/mtSOD methodology consists” for “Mitoread RedOx GSHtot methodology consists”, “of the cell and mitochondrial SOD activities. The cells” for “of the total glutathione level (GSH+GSSG). The cells”, “antioxidant, resveratrol at 1 μM,” for “antioxidant, resveratrol 1 μM,”, “or the active ingredients at the” for “or the extract at the”, “at 100 μM for 60” for “at 100 μM, for 60”, “C. The enzymatic activities were measured by” for “C. The total glutathione level was measured by”

OO [H2O2, hydrogen peroxide]
increase of the cell ROS production level compared with the nontreated cells ([1]; 100 μM H2O2): 7.4 times | increase in mitochondrial production of ROSs relative to the nontreated cells (factor) ([2]; 100 μM H2O2): 9.4 | increase in the total glutathione level compared with the nontreated cells ([3]; H2O2 at 100 μM, p=0.044): ~2.9 times | increase in the mitochondrial SOD activity compared with the nontreated cells ([4]; H2O2 100 μM, p=0.006): ~211% | decrease in the cell SOD activity compared with the nontreated cells ([5]; H2O2 100 μM, non-significant trend, p=0.075): ~30%

Cc1c(C)c2c(c(C)c1O)CCC(C)(C(=O)O)O2 (stereo not shown) [Trolox]
reduction of the overproduction of cell ROSs induced by H2O2 ([1]; Trolox at 10 μm, p<0.001): 1.7 times

Oc1ccc(C=Cc2cc(O)cc(O)c2)cc1 [resveratrol]
reduction of the overproduction of mitochondrial ROSs induced by H2O2 ([2]; 1 μM, p=0.013): ~1.3 times | reduction of the total glutathione level after treatment with H2O2 ([3]; pre-incubation at 1 μM, p=0.006): 94% | reduction of the activity of the mitochondrial SOD induced by H2O2 ([4]; 1 μM, p=0.021): ~66% | increase in the cell SOD activity in response to H2O2 exposure ([5]; 1 μM, p=0.036): ~40%
